Measured values from ChEMBL document CHEMBL4630901 (2021).
Calls of active or inactive are those of the source. The calls are words filed in the database; no cut-off is given here.

Columns and labels:
[1] = target: Glutamate NMDA receptor (Rattus norvegicus) (UniProt P35439+Q00959+Q00960+Q00961+Q62645+Q8VHN2+Q9R1M7); conditions: Compound concentration 10.0 uM
[2] = target: T1, Alpha-2A adrenergic receptor (Homo sapiens) (UniProt P08913); conditions: Compound concentration 10.0 uM
T1 sequence (whole entry): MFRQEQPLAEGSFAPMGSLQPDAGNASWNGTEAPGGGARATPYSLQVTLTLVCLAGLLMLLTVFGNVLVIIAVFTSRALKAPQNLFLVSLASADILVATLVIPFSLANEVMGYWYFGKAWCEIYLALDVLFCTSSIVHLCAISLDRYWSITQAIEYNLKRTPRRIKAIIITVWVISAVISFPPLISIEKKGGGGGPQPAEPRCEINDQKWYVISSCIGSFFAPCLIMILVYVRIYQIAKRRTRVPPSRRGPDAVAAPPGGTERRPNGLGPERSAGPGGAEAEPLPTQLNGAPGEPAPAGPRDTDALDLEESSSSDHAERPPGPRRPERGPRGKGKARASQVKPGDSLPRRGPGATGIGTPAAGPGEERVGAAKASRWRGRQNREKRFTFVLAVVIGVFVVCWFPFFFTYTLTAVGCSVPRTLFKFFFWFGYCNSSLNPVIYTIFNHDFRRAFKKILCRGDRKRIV

[3] = target: D(2) dopamine receptor (Homo sapiens) (UniProt P14416); conditions: Compound concentration 10.0 uM
Chain of D(2) dopamine receptor (Homo sapiens) (P14416 whole entry): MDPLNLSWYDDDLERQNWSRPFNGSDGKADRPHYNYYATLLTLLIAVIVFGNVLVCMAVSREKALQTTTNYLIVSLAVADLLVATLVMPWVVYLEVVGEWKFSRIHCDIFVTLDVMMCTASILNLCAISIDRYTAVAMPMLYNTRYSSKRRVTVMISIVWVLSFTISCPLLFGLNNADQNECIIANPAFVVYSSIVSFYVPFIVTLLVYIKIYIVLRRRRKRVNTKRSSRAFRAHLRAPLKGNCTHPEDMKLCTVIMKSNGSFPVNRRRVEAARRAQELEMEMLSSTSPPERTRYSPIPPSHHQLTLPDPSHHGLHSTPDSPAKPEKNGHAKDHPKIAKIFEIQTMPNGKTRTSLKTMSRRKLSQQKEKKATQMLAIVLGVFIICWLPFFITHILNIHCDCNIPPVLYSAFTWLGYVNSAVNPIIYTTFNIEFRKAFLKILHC

[4] = target: Histamine H1 receptor (Homo sapiens) (UniProt P35367); conditions: Compound concentration 10.0 uM
Chain of Histamine H1 receptor (Homo sapiens) (P35367 whole entry): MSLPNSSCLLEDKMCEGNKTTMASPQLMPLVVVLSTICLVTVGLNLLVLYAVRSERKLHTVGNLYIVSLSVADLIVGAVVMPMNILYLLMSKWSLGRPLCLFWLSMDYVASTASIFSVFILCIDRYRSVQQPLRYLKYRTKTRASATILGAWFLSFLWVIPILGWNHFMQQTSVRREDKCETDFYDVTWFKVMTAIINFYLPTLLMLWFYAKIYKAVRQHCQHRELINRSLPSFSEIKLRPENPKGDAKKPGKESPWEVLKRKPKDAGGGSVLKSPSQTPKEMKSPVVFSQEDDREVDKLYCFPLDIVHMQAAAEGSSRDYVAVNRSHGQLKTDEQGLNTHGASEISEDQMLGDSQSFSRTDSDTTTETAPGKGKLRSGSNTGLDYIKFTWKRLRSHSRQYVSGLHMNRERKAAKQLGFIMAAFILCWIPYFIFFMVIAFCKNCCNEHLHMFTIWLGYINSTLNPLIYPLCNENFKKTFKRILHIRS

[5] = target: Beta-3 adrenergic receptor (Homo sapiens) (UniProt P13945); conditions: Compound concentration 10.0 uM
Chain of Beta-3 adrenergic receptor (Homo sapiens) (P13945 whole entry, looked up): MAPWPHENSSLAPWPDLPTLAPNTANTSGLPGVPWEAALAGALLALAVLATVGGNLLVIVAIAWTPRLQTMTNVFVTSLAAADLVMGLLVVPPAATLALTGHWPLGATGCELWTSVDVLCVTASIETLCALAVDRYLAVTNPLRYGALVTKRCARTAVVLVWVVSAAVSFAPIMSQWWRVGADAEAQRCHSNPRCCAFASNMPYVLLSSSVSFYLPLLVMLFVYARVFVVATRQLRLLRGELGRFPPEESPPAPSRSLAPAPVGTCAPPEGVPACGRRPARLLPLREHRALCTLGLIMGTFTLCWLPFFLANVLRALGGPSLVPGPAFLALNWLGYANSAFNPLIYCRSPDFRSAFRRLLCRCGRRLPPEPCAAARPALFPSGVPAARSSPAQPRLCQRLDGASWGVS

[6] = target: Prostaglandin F2-alpha receptor (Mus musculus, UniProt P43117); assay: Bayer inhouse assay (mouse)
Chain of Prostaglandin F2-alpha receptor (P43117 whole entry): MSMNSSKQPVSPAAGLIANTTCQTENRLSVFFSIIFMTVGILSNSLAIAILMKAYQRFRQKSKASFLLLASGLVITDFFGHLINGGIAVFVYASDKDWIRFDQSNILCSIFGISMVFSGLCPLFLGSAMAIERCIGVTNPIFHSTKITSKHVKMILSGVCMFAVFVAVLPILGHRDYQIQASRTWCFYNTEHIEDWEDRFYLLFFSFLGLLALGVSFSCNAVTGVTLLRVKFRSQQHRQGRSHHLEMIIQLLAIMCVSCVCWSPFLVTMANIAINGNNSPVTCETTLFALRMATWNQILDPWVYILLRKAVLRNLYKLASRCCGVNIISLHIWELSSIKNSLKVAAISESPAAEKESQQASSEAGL

[7] = target: Adenosine Transporter (Cavia porcellus) (UniProt H0V4R7+H0UUG1+H0V3Z5); assay: Inhibition of Transporter, Adenosine at compound concentration of 10.0 uM in the Eurofins-Panlabs radioligand binding assay (Eurofins_assay_202000); assay type: protein assay; set-up: ligand concentration 0.5 nM, non-specific ligand with concentration 5 uM Nitrobenzylthioinosine, incubation time 30 min, incubation temperature 25 C; conditions: Compound concentration 10.0 uM
[8] = target: T2, Prostaglandin D2 receptor 2 (Homo sapiens) (UniProt Q9Y5Y4); assay: Prostanoid CRTH2 Eurofins-Panlabs radioligand binding assay; set-up: ligand concentration 1 nM
T2 sequence (whole entry): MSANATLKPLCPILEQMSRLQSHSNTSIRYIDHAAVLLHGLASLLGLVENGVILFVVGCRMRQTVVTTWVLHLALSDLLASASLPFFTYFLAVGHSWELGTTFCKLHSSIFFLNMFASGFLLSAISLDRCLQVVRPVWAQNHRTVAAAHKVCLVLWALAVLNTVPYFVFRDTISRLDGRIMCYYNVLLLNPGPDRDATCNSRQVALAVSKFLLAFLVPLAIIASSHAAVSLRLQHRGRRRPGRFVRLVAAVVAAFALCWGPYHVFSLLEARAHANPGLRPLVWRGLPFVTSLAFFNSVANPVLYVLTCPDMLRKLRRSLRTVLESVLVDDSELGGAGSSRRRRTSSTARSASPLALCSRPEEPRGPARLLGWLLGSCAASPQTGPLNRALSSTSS

[9] = target: Gamma-aminobutyric acid type B receptor subunit 1 (Homo sapiens) (UniProt Q9UBS5); conditions: Rattus norvegicus; Compound concentration 10.0 uM
Chain of Gamma-aminobutyric acid type B receptor subunit 1 (Homo sapiens) (Q9UBS5 whole entry): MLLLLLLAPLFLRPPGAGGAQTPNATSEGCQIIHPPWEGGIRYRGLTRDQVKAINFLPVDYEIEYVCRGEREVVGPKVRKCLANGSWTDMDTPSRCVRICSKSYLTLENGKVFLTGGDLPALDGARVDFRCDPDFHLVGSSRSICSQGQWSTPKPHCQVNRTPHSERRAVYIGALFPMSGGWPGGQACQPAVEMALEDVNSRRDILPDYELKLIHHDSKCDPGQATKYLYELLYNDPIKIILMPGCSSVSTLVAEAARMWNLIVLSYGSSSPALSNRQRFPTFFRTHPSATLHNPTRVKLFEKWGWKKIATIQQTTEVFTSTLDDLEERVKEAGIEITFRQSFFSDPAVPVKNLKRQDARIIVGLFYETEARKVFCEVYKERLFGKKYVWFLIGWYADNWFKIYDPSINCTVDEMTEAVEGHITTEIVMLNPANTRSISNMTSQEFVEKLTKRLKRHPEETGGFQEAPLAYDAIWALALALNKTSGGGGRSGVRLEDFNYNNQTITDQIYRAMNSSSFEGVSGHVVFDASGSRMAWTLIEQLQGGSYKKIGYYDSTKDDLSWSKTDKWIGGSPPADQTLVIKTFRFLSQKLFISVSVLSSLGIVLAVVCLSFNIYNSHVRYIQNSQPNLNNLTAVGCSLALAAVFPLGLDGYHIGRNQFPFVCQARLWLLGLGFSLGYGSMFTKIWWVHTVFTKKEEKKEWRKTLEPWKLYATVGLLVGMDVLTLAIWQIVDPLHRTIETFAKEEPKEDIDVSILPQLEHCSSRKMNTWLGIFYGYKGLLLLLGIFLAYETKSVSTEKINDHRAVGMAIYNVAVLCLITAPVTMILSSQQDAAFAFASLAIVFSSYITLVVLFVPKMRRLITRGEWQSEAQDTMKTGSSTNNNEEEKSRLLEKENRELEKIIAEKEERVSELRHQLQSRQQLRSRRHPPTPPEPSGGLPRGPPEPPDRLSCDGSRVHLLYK

[10] = target: B1 bradykinin receptor (Homo sapiens) (UniProt P46663); assay: Inhibition of Bradykinin B1 at 10 µM in the Eurofins-Panlabs radioligand binding assay (Eurofins_assay_212510); conditions: Compound concentration 10.0 uM
Chain of B1 bradykinin receptor (Homo sapiens) (P46663 whole entry): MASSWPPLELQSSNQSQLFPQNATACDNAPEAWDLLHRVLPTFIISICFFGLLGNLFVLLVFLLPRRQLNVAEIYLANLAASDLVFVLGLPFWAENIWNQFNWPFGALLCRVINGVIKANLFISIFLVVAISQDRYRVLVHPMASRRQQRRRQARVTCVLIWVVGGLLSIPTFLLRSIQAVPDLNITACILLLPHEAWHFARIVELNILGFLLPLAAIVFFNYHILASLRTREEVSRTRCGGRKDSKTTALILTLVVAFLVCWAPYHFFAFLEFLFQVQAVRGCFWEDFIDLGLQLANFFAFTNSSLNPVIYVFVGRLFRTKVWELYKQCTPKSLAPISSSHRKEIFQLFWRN

[11] = target: Alpha-2A adrenergic receptor (Homo sapiens, UniProt P08913); assay: GPCRScan assay: inhibition of Alpha2A; set-up: radioligand conc. used [nm] 1.0 – 3.0, parental cells stable MDCK

SMILES | inhibition [1] | inhibition [2] | inhibition [3] | inhibition [4] | inhibition [5] | IC50 [6] | inhibition [7] | inhibition ([8]; Compound concentration 0.001 uM) | inhibition ([8]; Compound concentration 0.01 uM) | inhibition ([8]; Compound concentration 0.1 uM) | inhibition ([8]; Compound concentration 1.0 uM) | inhibition ([8]; Compound concentration 10.0 uM) | inhibition [9] | inhibition [10] | Ki [11]
Cc1c(N2CCCC2)nc2ccc(Br)cc2c1C(=O)NC[C@H](CCC(=O)O)c1ccccc1Cl [BAY-6672] | -5% | 13% | 3% | 15% | 4% | 0.005 µM (active) | 10% | 3% | 2% | -3% | -6% | 19% | -4% | 7% | –
Cc1c(N2CCNCC2)nc2ccc(Br)cc2c1C(=O)NC[C@H](CCC(=O)O)c1ccccc1Cl [BAY-403] | – | – | – | – | – | – | – | – | – | – | – | – | – | – | 8.47 µM
